Data from paper PMC11414412, “Design and synthesis new indole-based aromatase/iNOS inhibitors with apoptotic antiproliferative activity” (Frontiers in Chemistry, 2024).

Tests used:
Bax = Bax activation assay; type: cell-based, human; settings: lung (A-549) cancer cells; for Bax Fold change: at IC50, vs untreated control; for Bax Conc: compound at IC50
Protocol: Cells were obtained from American Type Culture Collection, cells were grown in RPMI 1640 containing 10% fetal bovine serum at 37°C, stimulated with the compounds to be tested for caspase8, and lysed with Cell Extraction Buffer. This lysate was diluted in Standard Diluent Buffer over the range of the assay and measured for human active caspase-8 content. […]
4.2.7. Bax activation assay
Bring all reagents, except the human Bax-α Standard, to room temperature for at least 30 minutes prior to opening. The human Bax-α Standard solution should not be left at room temperature for more than 10 minutes. All standards, controls and samples should be run in duplicate. Refer to the Assay Layout Sheet to determine the number of wells to be used and put any remaining wells with the desiccant back into the pouch and seal the ziploc. Store unused wells at 4 °C. Pipet 100 μL of Assay Buffer into the S0 (0 pg/mL standard) wells. Pipet 100 μL of Standards #1 through #6 into the appropriate wells. Pipet 100 μL of the Samples into the appropriate wells. Tap the plate gently to mix the contents. Seal the plate and incubate at room temperature on a plate shaker for 1 hour at ~500 rpm. Empty the contents of the wells and wash by adding 400 μL of wash solution to every well. Repeat the wash 4 more times for a total of 5 washes. After the final wash, empty or aspirate the wells and firmly tap the plate on a lint free paper towel to remove any remaining wash buffer.
Pipet 100 μL of yellow Antibody into each well, except the Blank. Seal the plate and incubate at room temperature on a plate shaker for 1 hour at ~500 rpm. Empty the contents of the wells and wash by adding 400 μL of wash solution to every well. Repeat the wash 4 more times for a total of 5 washes. After the final wash, empty or aspirate the wells and firmly tap the plate on a lint free paper towel to remove any remaining wash buffer. Add 100 μL of blue Conjugate to each well, except the Blank. Seal the plate and incubate at room temperature on a plate shaker for 30 minutes […]
Pipet 100 μL of Substrate Solution into each well. Incubate for 30 minutes at room temperature on a plate shaker at ~500 rpm. Pipet 100 μL Stop Solution to each well. Blank the plate reader against the Blank wells, read the optical density at 450 nm. Calculate the average net Optical Density (OD) bound for each standard and sample by subtracting the average Blank OD from the average OD for each standard and sample. Using linear graph paper, plot the Average Net OD for each standard versus Bax concentration in each standard. Approximate a straight line through the points.
The concentration of Bax in the unknowns can be determined by interpolation. […]

SMILES	Bax Fold change (Bax)	Bax Conc (Bax)	melting point
CCc1c2cc(Cl)ccc2n2cc(-c3ccccc3)[nH]c(=O)c12 [Compound 16, 8-Chloro-10-ethyl-3-phenylpyrazino [1,2-a]indol-1(2H)-one]	35	315 ± 3 pg/mL	
CCc1c2cc(Cl)ccc2n2cc(Cc3ccccc3)n(C)c(=O)c12 [Compound 12, 3-Benzyl-8-chloro-10-ethyl-2-methylpyrazino[1,2-a]indol-1(2H)-one]	41	368 ± 3 pg/mL	
CCc1c2cc(Cl)ccc2n2c(C)c(C(=O)OCc3ccccc3)[nH]c(=O)c12 [Compound 5, benzyl 8-chloro-10-ethyl-4-methyl-1-oxo-1,2-dihydropyrazino [1,2-a]indole-3-carboxylate]			180 to 182 °C
